Results published in patent US20220249564A1, “PDL1 POSITIVE NK CELL CANCER TREATMENT” (City of Hope, priority 2019, published 2022).

Legend:
[1] = test system: PD-L1 expression on NK cells; experiment: PD-L1 expression on NK cells incubated with K562 cells in the presence of pathway inhibitors; assay type: cell-based, human; conditions: inhibitor 1 μM or 10 μM, FIGS. 6B, 6C
Procedure: (§1) FIGS. 6A-6J present data showing signaling pathways activating PD-L1^+ NK cells. […] “D1+” represents PD-L1^+ NK cells from donor 1, while “D1−” represents PD-L1^− NK cells from donor 1, each purified by FACS sorting. Similar definitions are applied to “D2+”, “D2−”, “D3+”, and “D3−”. Expression of Cd274 (PD-L1), Cd226, Tbx21, Eomes, Smad3 and Aka are highlighted by black arrows. […] The percentages of PD-L1+ NK cells were measured by flow cytometry. […] Data were generated from five (5) independent donors, and the experiment was repeated three times. […] Relative promoter activity was measured by luciferase assay after 48 hours. […] The experiments were repeated three times. […] The experiments were repeated three times.
To investigate mechanisms by which PD-L1 is induced in NK cells by myeloid leukemia cells, an RNA microarray was performed to profile gene expression in PD-L1^+ NK cells vs PD-L1^− NK cells, both of which were FACS-purified from bulk NK cells after being co-cultured with K562 cells. […] They were subsequently incubated with K562 myeloid leukemia cells and then PD-L1 expression on NK cells was measured. […] A PD-L1 promoter was cloned 2.1 kb upstream of the transcription start site, co-transfected with genes for specific transcription factors in 293T cells, and the activity of the PD-L1 promoter was measured by luciferase assay. […]

[2] = test system: NK cells incubated with K562 cells; experiment: p38 inhibitors on AZ-induced PD-L1, CD107α and IFN-γ expression of NK cells; assay type: cell-based, human; conditions: presence of K562 tumor cells, 1 μM inhibitor; for AZ-induced PD-L1 expression: FIG. 6H; for AZ-induced CD107α expression of NK cells / AZ-induced IFN-γ expression of NK cells: FIG. 6J
Procedure: as §1
Two paired groups were compared by paired t-test. One-way ANOVA with repeated measures or linear mixed model was used to compare three (3) or more donor-matched groups. P values were adjusted by the Holm-Sidak method.
(§2) Cells were suspended in 100 μl PBS with 2% FBS and incubated with the indicated mAb (Table 2) at room temperature for 20 mins. After washing with 2% FBS for one time and PBS for another time, cells were fixed in 1% paraformaldehyde buffer for immediate analysis by flow cytometry using a LSRII flow cytometer (BD Biosciences). Cells used for sorting were re-suspended in RPMI 1640 containing 10% FBS. For intracellular flow cytometry, cells were permeabilized and fixed using the Foxp3/Transcription Factor Fixation/Permeabilization kit (eBioscience, Cat #00-5523-00). Data were analyzed by FlowJo software.

[3] = test system: PD-L1 expression on NK cells; experiment: Induction of PD-L1 expression on NK cells by NK cell-activating cytokines; assay type: cell-based, human; conditions: alone or in combination with other cytokines, 10 ng/mL, 24 hour; FIG. 11F
Procedure: The cytotoxicity levels of total NK cells incubated with medium alone were served as control. The cytokine-treated bulk NK cells were permeabilized and gated PD-L1+ and PD-L1^− cells to measure the MFI of IFN-γ by flow cytometry assay as shown in FIG. 11D. […] Summary graph (n=3) is shown at the bottom. […] Summary graph (n=3) is shown at the bottom. Two-sample t test was used for 2-group comparisons. One-way ANOVA was used to compare three (3) or more groups and P values were adjusted by the Holm-Sidak method. **, P<0.01; ***, P<0.001; ****, P<0.0001; NS=not significant.
Peripheral blood samples from healthy donors were obtained from The American Red Cross. Human PBMCs were isolated by Percoll density gradient centrifugation. Primary human NK cells were enriched from the peripheral blood of healthy donors using an NK Cell Enrichment Kit (Miltenyi Biotec, Cat #0.130-115-818). Enriched NK cells with purity about 90% were either sorted by fluorescence-activated cell sorting (FACS) to the purity around 96% and then used or used immediately for in vitro cell culture experiments. NK cells were cultured in RPMI 1640 supplemented with 20% FBS, 100 U/ml penicillin/streptomycin, and 10 ng/ml IL-2. […]
Cells were suspended in 100 μl PBS with 2% FBS and incubated with the indicated mAb (Table 2) at room temperature for 20 mins. […] Data were analyzed by FlowJo software. […]

[4] = test system: PD-L1+ NK cells; experiment: NK cell CD107α and IFN-γ expression after AZ treatment (flow cytometry); assay type: cell-based, human
Procedure: (§3) FIGS. 3A-3D present data showing that anti-PD-L1 monoclonal antibody atezolizumab (AZ) activates PD-L1 signaling in NK cells and enhances NK cell function. […] The P values were corrected for multiple comparisons by Holm's method. […] The experiment was repeated three times with three different donors. […] NK cells were sorted and the relative levels of PD-L1 mRNA expression were measured by qRT-PCR. The experiment was repeated three times. […] Two paired groups were compared by paired t-test. One-way ANOVA with repeated measures or linear mixed model was used to compare three (3) or more donor-matched groups. P values were adjusted by the Holm-Sidak method.
Peripheral blood samples from healthy donors were obtained from The American Red Cross. Human PBMCs were isolated by Percoll density gradient centrifugation. Primary human NK cells were enriched from the peripheral blood of healthy donors using an NK Cell Enrichment Kit (Miltenyi Biotec, Cat #0.130-115-818). Enriched NK cells with purity about 90% were either sorted by fluorescence-activated cell sorting (FACS) to the purity around 96% and then used or used immediately for in vitro cell culture experiments. […] All cell lines were maintained in RPMI 1640 medium supplemented with 10% FBS and 100 U/ml penicillin/streptomycin. For co-culture stimulation experiments, PBMCs, enriched NK cells, or FACS-sorted NK cells were co-incubated with various cell lines including K562, MOLM-13, AML3, RPMI 8226 or MV-4-11 at an effector/target (E/T) ratio of 10:1. […] For transwell assay experiments, 5×10^5 enriched human primary NK cells were seeded in the upper chamber of a transwell plate. The lower chamber of the transwell plate was seeded with 5×10^4 K562 myeloid leukemia cells. The transwell plate with cells was incubated at 37° C. for 20 hr.
Cells were suspended in 100 μl PBS with 2% FBS and incubated with the indicated mAb (Table 2) at room temperature for 20 mins. […] Data were analyzed by FlowJo software.

[5] = test system: PD-L1 expression on NK cells; experiment: PD-L1 expression of K562-pretreated NK cells after AZ (qRT-PCR, flow cytometry); assay type: cell-based, human; conditions: time dependent
Procedure: as §3
as §2, with “software. […]” for “software.”

[6] = test system: PD-L1-KO K562 myeloid leukemia cells; experiment: NSG mouse model with human primary NK cells and PD-L1-KO K562 cells; assay type: in vivo, NSG mice
Description: After 6 days, mice were sacrificed and NK cells were isolated and assessed for PD-L1 expression by flow cytometry. […] PBS instead of IgG1 was used as placebo because AZ lacks antibody-dependent cellular cytotoxicity activity. After 6 days (three treatments), mice were sacrificed and human NK cells were examined for their expression of granzyme B, CD107α, and IFN-γ, while the number of PD-L1-knockout K562 myeloid leukemia cells (as shown in FIG. 5C) was enumerated by flow cytometry. […] Two paired groups were compared by paired t-test. One-way ANOVA with repeated measures or linear mixed model was used to compare three (3) or more donor-matched groups. P values were adjusted by the Holm-Sidak method. Kaplan-Meier method was used to estimate survival functions and log-rank test was applied to group comparisons.
8-week old NSG mice were intravenously (i.v.) injected with PD-L1 knockout K562 myeloid leukemia cells at a concentration of 2 million cells per mouse. […] Mice in the atezolizumab (AZ)-treated or control group were simultaneously i.p-injected with 200 μg AZ in 200 μL PBS or 200 μL PBS per mouse. Cytokines and AZ were injected every other day for a total of […]. The numbers of NK cells and tumor cells were examined at day 6 post injection.

[7] = test system: p38, p-ERK, p-AKT, p-mTOR in NK cells; experiment: Downstream kinase phosphorylation in NK cells after AZ (intracellular flow cytometry, immunoblot); assay type: cell-based, human; conditions: NK cells with K562 cells, AZ treatment
Procedure: as §1
FIG. 13 presents data showing induction of p38-NF-κB signaling in primary human NK cells by the anti-PD-L1 antibody AZ. […] The histograms provided in the upper panel represent quantification of various phosphorylated kinases expressed in NK cells, followed by a graphical summary of the data (n=3) below each histogram. One-way ANOVA with repeated measures or linear mixed model was used to compare three (3) or more donor-matched groups and P values were adjusted by the Holm-Sidak method. ****, P<0.0001; NS=not significant.
as §2
Cells were pelleted and lysed in protein extraction reagent (Thermo Fisher, Cat. #78510) supplied with proteinase inhibitors. Standard procedures were used for immunoblotting. Primary antibodies used were PD-L1 (Cell Signaling Technology, Cat. #13684), GAPDH (Cell Signaling Technology, Cat. #2118), β-actin (Cell Signaling Technology, Cat. #4967), p-p38 (Cell Signaling Technology, Cat. #9211) and p-AKT (Cell Signaling Technology, Cat. #9271). Proteins were detected using goat anti-rabbit HRP-conjugated secondary antibodies (Cell Signaling Technology, Cat. #7074).

[8] = test system: PD-L1 expression on expanded human primary NK cells; experiment: PD-L1 expression on expanded human primary NK cells with AZ; assay type: cell-based; conditions: expanded 7 days with K562 feeder cells, with or without 5 ng/ml IL-12 and IL-18 for 20 h; FIG. 15
Procedure: Expanded human primary NK cells for 7 days with indicated medium (R10: RPMI1640+10% FBS; MACS: MACS medium+5% human serum; SCGM: SCGM medium+5% human serum) were treated with or without 5 ng/ml IL-12 and IL-18 for 20 h in the presence of AZ or not. The expression of PD-L1 were examined by flow cytometry. P values of multiple comparison were analyzed using one-way ANOVA. Multiple comparison test was adjusted by Holm-Sidak method. ****, P<0.0001.
Expanded human primary NK cells for 7 days with indicated medium (R10: RPMI1640+10% FBS; MACS: MACS medium+5% human serum; SCGM: SCGM medium+5% human serum) were treated with or without 5 ng/ml IL-12 and IL-18 for 20 h in the presence of AZ or not. The expression of PD-L1 were examined by flow cytometry (FIG. 15). PBMC from lung cancer patients were isolated and examined for PD-L1 expression by flow cytometry (FIG. 16).

[9] = test system: ADCC; conditions: Fc domain modification; cited from earlier work
[10] = NK cells stimulated with PD-L1 knock-out K562 cells 20 hours, then 20 μg/mL AZ 4 hours, FIG. 3A
[11] = vs placebo (PBS), i.p. every other day, after 6 days, FIG. 5B

Cn1ncc(Cl)c1-c1cc(C(=O)N[C@H](CN)Cc2cccc(F)c2)sc1Cl [afuresertib]
PD-L1 expression on NK cells [1]: significantly reduced

C[S+]([O-])c1ccc(-c2nc(-c3ccncc3)c(-c3ccc(F)cc3)[nH]2)cc1 (stereo not drawn) [SB203580]
AZ-induced PD-L1 expression [2]: reduce
AZ-induced CD107α expression of NK cells [2]: inhibited
AZ-induced IFN-γ expression of NK cells [2]: inhibited

Oc1ccc(-c2nc(-c3ccncc3)c(-c3ccc(F)cc3)[nH]2)cc1 [SB202190]
AZ-induced PD-L1 expression [2]: reduce
AZ-induced CD107α expression of NK cells [2]: inhibited
AZ-induced IFN-γ expression of NK cells [2]: inhibited

recombinant IFN-γ: recombinant interferon gamma
PD-L1 expression on NK cells [3]: could not induce

atezolizumab [AZ]
expression of CD107a in PD-L1+ NK cells [4, 10]: increased
expression of IFN-γ in PD-L1+ NK cells [4, 10]: increased
IFN-γ production of PD-L1-transduced NK cells ([4]; lentiviral PD-L1-transduced NK cells treated with AZ, FIG. 3B): even more dramatically increased
PD-L1 expression of NK cells, mRNA level ([5]; NK cells pretreated with K562, 20 μg/mL AZ, FIG. 3C): further elevated
PD-L1 expression of NK cells, protein level ([5]; NK cells pretreated with K562, AZ, FIG. 3D): further elevated
NK cell expression of CD107α [6, 11]: significant increase
NK cell expression of IFN-γ [6, 11]: significant increase
NK cell expression of granzyme B [6, 11]: significant increase
tumor burden (number of PD-L1-KO K562 cells) ([6]; vs placebo-treated mice, upon sacrifice, FIG. 5C): significantly lower
level of p38 ([7]; IL-2 10 ng/mL, FIG. 13, 6G): increased
level of p-ERK ([7]; FIG. 13): not increased
level of p-mTOR ([7]; FIG. 13): not increased
level of p-AKT ([7]; FIG. 13, 6G): not increased
expression of PD-L1 on expanded human primary NK cells [8]: further enhanced
ADCC effect [9]: absence

Cc1ccc(S(=O)(=O)N[C@@H](Cc2ccccc2)C(=O)CCl)cc1 [TPCK]
PD-L1 expression on NK cells [1]: regulation role of p65 in PD-L1 expression was confirmed
